Five molecules from ChEMBL document CHEMBL5724914, “Linking interpersonal differences in gut microbiota composition and drug biotransformation activity” (2024) can be followed below.

Data set [1] is described as follows: The drug is tested on Z-028 corresponding to mouse gut metagenome with ENA study accession number: PRJEB37062 and ENA sample accession number: ERS12561827 for biotransformation under anaerobic condition. The drug concentrations were measured over 9 timepoints collected between 0 and 24 hours of incubation by liquid-chromatography-coupled mass spectrometry (LC–MS). Particulars: 2 µM.

The nature of data set [2]: The drug is tested on Z-024 corresponding to pig gut metagenome with ENA study accession number: PRJEB37062 and ENA sample accession number: ERS12561823 for biotransformation under anaerobic condition. The drug concentrations were measured over 9 timepoints collected between 0 and 24 hours of incubation by liquid-chromatography-coupled mass spectrometry (LC–MS). The settings on record: 2 µM.

Data set [3] in a line: The drug is tested on WLS-038 corresponding to human gut metagenome with ENA study accession number: PRJEB37062 and ENA sample accession number: ERS12561745 for biotransformation under anaerobic condition. The drug concentrations were measured over 9 timepoints collected between 0 and 24 hours of incubation by liquid-chromatography-coupled mass spectrometry (LC–MS). The settings on record: 2 µM.

Data set [4] can be described thus: The drug is tested on WLS-007 corresponding to human gut metagenome with ENA study accession number: PRJEB37062 and ENA sample accession number: ERS12561742 for biotransformation under anaerobic condition. The drug concentrations were measured over 9 timepoints collected between 0 and 24 hours of incubation by liquid-chromatography-coupled mass spectrometry (LC–MS). The settings on record: 2 µM.

For data set [5] the following is noted: human gut metagenome, 24 h, 2 µM.
A short description of data set [6]: The drug is tested on Z-007 corresponding to rat gut metagenome with ENA study accession number: PRJEB37062 and ENA sample accession number: ERS12561807 for biotransformation under anaerobic condition. The drug concentrations were measured over 9 timepoints collected between 0 and 24 hours of incubation by liquid-chromatography-coupled mass spectrometry (LC–MS). The settings on record: 2 µM.

For data set [7] the following is noted: human gut metagenome, 24 h, 2 µM. The source holds these as a separate data set.
A short description of data set [8]: The drug is tested on Z-013 corresponding to rabbit gut metagenome with ENA study accession number: PRJEB37062 and ENA sample accession number: ERS12561813 for biotransformation under anaerobic condition. The drug concentrations were measured over 9 timepoints collected between 0 and 24 hours of incubation by liquid-chromatography-coupled mass spectrometry (LC–MS). Particulars: 2 µM.

The conditions of data set [9]: human gut metagenome, 24 h, 2 µM. This is another data set of the same source.
The conditions of data set [10]: human gut metagenome, 24 h, 2 µM. The source holds these as a separate data set.
Data set [11] is described as follows: The drug is tested on Z-005 corresponding to metagenome with ENA study accession number: PRJEB37062 and ENA sample accession number: ERS12561805 for biotransformation under anaerobic condition. The drug concentrations were measured over 9 timepoints collected between 0 and 24 hours of incubation by liquid-chromatography-coupled mass spectrometry (LC–MS). Particulars: 2 µM.

Data set [12] is described as follows: The drug is tested on WLS-052 corresponding to human gut metagenome with ENA study accession number: PRJEB37062 and ENA sample accession number: ERS12561747 for biotransformation under anaerobic condition. The drug concentrations were measured over 9 timepoints collected between 0 and 24 hours of incubation by liquid-chromatography-coupled mass spectrometry (LC–MS). Particulars: 2 µM.

Data set [13] can be described thus: The drug is tested on Z-025 corresponding to rabbit gut metagenome with ENA study accession number: PRJEB37062 and ENA sample accession number: ERS12561824 for biotransformation under anaerobic condition. The drug concentrations were measured over 9 timepoints collected between 0 and 24 hours of incubation by liquid-chromatography-coupled mass spectrometry (LC–MS). Particulars: 2 µM.

The nature of data set [14]: The drug is tested on Z-027 corresponding to metagenome with ENA study accession number: PRJEB37062 and ENA sample accession number: ERS12561826 for biotransformation under anaerobic condition. The drug concentrations were measured over 9 timepoints collected between 0 and 24 hours of incubation by liquid-chromatography-coupled mass spectrometry (LC–MS). The settings on record: 2 µM.

For data set [15] the following is noted: human gut metagenome, 24 h, 2 µM. The source holds these as a separate data set.
The conditions of data set [16]: human gut metagenome, 24 h, 2 µM. This is another data set of the same source.
The conditions of data set [17]: human gut metagenome, 24 h, 2 µM. The source holds these as a separate data set.
Data set [18] in a line: The drug is tested on Z-002 corresponding to rabbit gut metagenome with ENA study accession number: PRJEB37062 and ENA sample accession number: ERS12561802 for biotransformation under anaerobic condition. The drug concentrations were measured over 9 timepoints collected between 0 and 24 hours of incubation by liquid-chromatography-coupled mass spectrometry (LC–MS). The settings on record: 2 µM.

Data set [19] can be described thus: The drug is tested on Z-022 corresponding to mouse gut metagenome with ENA study accession number: PRJEB37062 and ENA sample accession number: ERS12561821 for biotransformation under anaerobic condition. The drug concentrations were measured over 9 timepoints collected between 0 and 24 hours of incubation by liquid-chromatography-coupled mass spectrometry (LC–MS). Particulars: 2 µM.

Data set [20] can be described thus: The drug is tested on WLS-027 corresponding to human gut metagenome with ENA study accession number: PRJEB37062 and ENA sample accession number: ERS12561744 for biotransformation under anaerobic condition. The drug concentrations were measured over 9 timepoints collected between 0 and 24 hours of incubation by liquid-chromatography-coupled mass spectrometry (LC–MS). Particulars: 2 µM.
Also: call rule not given here.

With `CCOC(=O)[C@H](CCc1ccccc1)N[C@H]1CCc2ccccc2N(CC(=O)O)C1=O` [BENAZEPRIL], the “Bacterial Biotransformation” value was “Compound metabolized” in data set [1]; “Compound metabolized” in [2]; “Compound metabolized” in [3]; “Compound metabolized” in [4]; “Compound NOT metabolized” in data set [5]; “Compound metabolized” in data set [6]. Also, the “Bacterial Biotransformation” value is reported as “Compound NOT metabolized” in [7]; “Compound NOT metabolized” in data set [8]; “Compound metabolized” in data set [9]; “Compound metabolized” in data set [10]; “Compound metabolized” in data set [11]; “Compound metabolized” in [12]. For the same molecule, the “Bacterial Biotransformation” value was “Compound NOT metabolized” in [13]; “Compound NOT metabolized” in data set [14]; “Compound metabolized” in data set [15]; “Compound metabolized” in [16]; “Compound metabolized” in data set [17]; “Compound metabolized” in data set [18]. For the same molecule, the “Bacterial Biotransformation” value in data set [19] and in data set [20] was “Compound metabolized” each time.
As to `NS(=O)(=O)c1cc2c(cc1Cl)N=C(CSCc1ccccc1)NS2(=O)=O` [BENZTHIAZIDE], the “Bacterial Biotransformation” value in [1] is given as “Compound NOT metabolized”; in data set [2] it was “Compound metabolized”; in [3] it was “Compound NOT metabolized”; in [4] it was “Compound NOT metabolized”; in data set [5], “Compound NOT metabolized”; in data set [6] it was “Compound NOT metabolized”. Also, the “Bacterial Biotransformation” value in [7], in data set [8], in data set [9], in [10], in data set [11] and in [12] was “Compound NOT metabolized” in each case. Further, the “Bacterial Biotransformation” value is given as “Compound metabolized” in data set [13]; “Compound NOT metabolized” in data set [14]; “Compound NOT metabolized” in [15]; “Compound NOT metabolized” in data set [16]; “Compound NOT metabolized” in data set [17]; “Compound metabolized” in [18]. For the same molecule, the “Bacterial Biotransformation” value in [19] and in data set [20] was “Compound NOT metabolized” each time.
In the case of `CC(C)NCC(O)COc1ccc(COCCOC(C)C)cc1.CC(C)NCC(O)COc1ccc(COCCOC(C)C)cc1.O=C(O)/C=C/C(=O)O` (stereo not given) [BISOPROLOL FUMARATE], the “Bacterial Biotransformation” value in data set [1] is “Compound NOT metabolized”; in data set [2], “Compound metabolized”; in data set [3], “Compound NOT metabolized”; in data set [4], “Compound metabolized”; in [5] it was “Compound NOT metabolized”; in [6] it was “Compound NOT metabolized”. In addition, the “Bacterial Biotransformation” value in [7] was “Compound NOT metabolized”; in data set [8] it was “Compound NOT metabolized”; in [9], “Compound NOT metabolized”; in [10] it was “Compound metabolized”; in data set [11], “Compound NOT metabolized”; in data set [12] it was “Compound NOT metabolized”. For the same molecule, the “Bacterial Biotransformation” value was “Compound metabolized” in [13]; “Compound NOT metabolized” in [14]; “Compound NOT metabolized” in data set [15]; “Compound NOT metabolized” in data set [16]; “Compound metabolized” in data set [17]; “Compound metabolized” in data set [18]. Moreover, the “Bacterial Biotransformation” value in data set [19] was “Compound metabolized”; in data set [20], “Compound NOT metabolized”.
As for `CCCCCOC(=O)Nc1nc(=O)n([C@@H]2O[C@H](C)[C@@H](O)[C@H]2O)cc1F` [CAPECITABINE], the “Bacterial Biotransformation” value in data set [1] was “Compound metabolized”; in data set [2], “Compound metabolized”; in data set [3], “Compound metabolized”; in data set [4] it was “Compound metabolized”; in [5], “Compound NOT metabolized”; in data set [6], “Compound NOT metabolized”. Besides, the “Bacterial Biotransformation” value in data set [7], in [8], in data set [9], in [10], in data set [11] and in [12] was “Compound metabolized” in each case. The “Bacterial Biotransformation” value in [13], in data set [14], in data set [15], in [16], in data set [17] and in data set [18] was “Compound metabolized” each time. In addition, the entries for the “Bacterial Biotransformation” value in data set [19] and in [20] were “Compound NOT metabolized” and “Compound metabolized”, respectively.
On to `Cc1ccc(-c2cc(C(F)(F)F)nn2-c2ccc(S(N)(=O)=O)cc2)cc1` [CELECOXIB], for which the “Bacterial Biotransformation” value in data set [1] is reported as “Compound NOT metabolized”; in [2], “Compound NOT metabolized”; in [3] it was “Compound metabolized”; in data set [4], “Compound metabolized”; in [5] it was “Compound NOT metabolized”; in data set [6], “Compound NOT metabolized”. Besides, the “Bacterial Biotransformation” value in [7] was “Compound metabolized”; in data set [8] it was “Compound NOT metabolized”; in data set [9], “Compound NOT metabolized”; in data set [10], “Compound metabolized”; in data set [11], “Compound NOT metabolized”; in [12], “Compound metabolized”. The “Bacterial Biotransformation” value in data set [13] is listed as “Compound NOT metabolized”; in [14] it was “Compound NOT metabolized”; in data set [15] it was “Compound metabolized”; in [16], “Compound metabolized”; in data set [17], “Compound NOT metabolized”; in data set [18], “Compound NOT metabolized”. Moreover, the “Bacterial Biotransformation” value in data set [19] was “Compound NOT metabolized”; in data set [20], “Compound metabolized”.
